Patent US10723723B2, “Substituted bicycle heterocyclic derivatives useful as ROMK channel inhibitors” (BRISTOL-MYERS SQUIBB COMPANY, priority 2016, dated 2020)
pIC50: −log10 of the molar value. One block for each compound: values may come before it.

Key:
Format in all cases: cell-based
hROMK = hROMK (Homo sapiens (Human), UniProt P48048); assay: ROMK Manual Patch Clamp Assay; conditions: whole-cell manual patch clamp, hROMK current; read-out: ROMK EP IC50
Description: Cell culture conditions: Cells were maintained in conditions similar to those for Thallium flux assay. hROMK channel expression was induced by adding 0.6 μg/ml of Doxycycline 16-24 hrs prior to the experiments. On the day of experiment, the cells were dissociated using Versene, resuspended in growth media and plated onto coverslips 15 minutes prior to use.
The cells were voltage clamped at −75 mV in whole-cell configuration using an Axopatch 200b or Multiclamp 700b (Molecular Devices) amplifier controlled by pClamp Software (Molecular Devices). The current was recorded by applying a voltage step to −120 mV every 10 seconds. […] At the end of the experiment, the cells were perfused with bath solution containing 2 mM Ba^2+ to isolate the contribution of hROMK current.
Data analysis: Raw current values (5 traces each for control, different compound concentration and Ba^2+ treatment groups) were exported from Clampfit into Microsoft Excel where the current remaining after application of Ba^2+ was subtracted from raw current to obtain hROMK specific current.

hERG channels = hERG channels (Homo sapiens (Human), UniProt Q12809); assay: hERG Manual Patch Clamp Assay (HEK 293 cells stably expressing hERG channels); conditions: for inhibition at 1 µM: human, HEK 293 cells stably expressing hERG channels, pH 7.4
hERG channels, sequence (Q12809 whole entry): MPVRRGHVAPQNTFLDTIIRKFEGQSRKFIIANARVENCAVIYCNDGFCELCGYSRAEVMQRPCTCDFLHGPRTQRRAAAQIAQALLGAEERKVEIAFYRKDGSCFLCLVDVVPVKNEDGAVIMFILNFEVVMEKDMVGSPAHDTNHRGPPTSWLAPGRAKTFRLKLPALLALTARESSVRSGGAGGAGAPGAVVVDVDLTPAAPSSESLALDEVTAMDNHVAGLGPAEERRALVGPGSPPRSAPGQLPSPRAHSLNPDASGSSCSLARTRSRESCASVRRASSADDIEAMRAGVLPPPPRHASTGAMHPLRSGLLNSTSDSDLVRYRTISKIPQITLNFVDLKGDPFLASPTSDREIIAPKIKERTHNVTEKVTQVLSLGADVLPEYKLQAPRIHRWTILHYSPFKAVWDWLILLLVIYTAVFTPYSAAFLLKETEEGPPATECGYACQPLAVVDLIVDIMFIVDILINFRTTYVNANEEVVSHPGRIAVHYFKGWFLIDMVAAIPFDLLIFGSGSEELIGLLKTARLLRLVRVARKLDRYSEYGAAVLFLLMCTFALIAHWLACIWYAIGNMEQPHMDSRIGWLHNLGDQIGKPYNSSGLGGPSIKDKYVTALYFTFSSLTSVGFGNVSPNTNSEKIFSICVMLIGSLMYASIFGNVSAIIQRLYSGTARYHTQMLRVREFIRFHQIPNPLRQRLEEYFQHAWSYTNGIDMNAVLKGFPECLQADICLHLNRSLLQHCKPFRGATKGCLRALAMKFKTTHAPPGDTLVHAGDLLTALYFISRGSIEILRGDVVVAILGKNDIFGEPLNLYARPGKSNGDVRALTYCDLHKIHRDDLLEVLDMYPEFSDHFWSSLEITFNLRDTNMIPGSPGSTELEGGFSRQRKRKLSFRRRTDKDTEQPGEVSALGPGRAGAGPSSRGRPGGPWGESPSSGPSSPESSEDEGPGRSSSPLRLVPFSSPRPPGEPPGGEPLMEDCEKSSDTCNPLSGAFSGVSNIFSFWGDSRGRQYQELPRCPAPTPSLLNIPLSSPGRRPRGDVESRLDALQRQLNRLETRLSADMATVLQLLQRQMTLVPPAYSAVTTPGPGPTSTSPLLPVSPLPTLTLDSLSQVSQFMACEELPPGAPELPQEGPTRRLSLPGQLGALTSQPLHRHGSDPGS
Description: hERG electrophysiology assay: The experimental compounds were assessed for hERG activity on HEK 293 cells stably expressing hERG channels using patch clamp technique. Coverslips plated with hERG expressing cells were placed in the experimental chamber and were perfused with a solution composed of (in mM): 140 NaCl, 4 KCl, 1.8 CaCl2), 1 MgCl2, 10 Glucose, 10 HEPES (pH 7.4, NaOH) at room temperature. Borosilicate patch pipettes had tip resistances of 2-4 Mohms when filled with an internal solution containing: 130 KCl, 1 MgCl2, 1 CaCl2), 10 EGTA, 10 HEPES, 5 ATP-K2 (pH 7.2, KOH). The cells were clamped at −80 mV in whole cell configuration using an Axopatch 200B (Axon instruments, Union City, Calif.) patch clamp amplifier controlled by pClamp (Axon instruments) software. Upon formation of a gigaseal, the following voltage protocol was repeatedly (0.05 Hz) applied to record tail currents: depolarization step from −80 mV to +20 mV for 2 seconds followed by a hyperpolarization step to −65 mV (3 seconds) to elicit tail currents. Compounds were applied after stabilization of tail current. First, tail currents were recorded in presence of extracellular solution alone (control) and subsequently, in extracellular solution containing increasing compound concentrations. Each compound concentration was applied for 2-5 minutes. The percentage inhibition at each concentration was calculated as reduction in peak tail current with respect to the peak tail current recorded in the presence of control solution. Data analysis was performed in a custom made template. The percent inhibitions at different concentrations were plotted to obtain a concentration response curve, which was subsequently fitted with a four parameter equation to calculate hERG IC50 value.
A lower hERG % Inhibition value indicates less inhibition of the hERG current

hROMK (human Kir1.1) = hROMK (human Kir1.1) (Homo sapiens (Human), UniProt P48048); assay: Thallium Flux Assay (FluxOR, CHO T-Rex hROMK stable cell line); conditions: CHO T-Rex hROMK cells, 10-point concentration response curve; read-out: Human ROMK TH Flux IC50
hROMK (human Kir1.1), sequence (P48048 whole entry): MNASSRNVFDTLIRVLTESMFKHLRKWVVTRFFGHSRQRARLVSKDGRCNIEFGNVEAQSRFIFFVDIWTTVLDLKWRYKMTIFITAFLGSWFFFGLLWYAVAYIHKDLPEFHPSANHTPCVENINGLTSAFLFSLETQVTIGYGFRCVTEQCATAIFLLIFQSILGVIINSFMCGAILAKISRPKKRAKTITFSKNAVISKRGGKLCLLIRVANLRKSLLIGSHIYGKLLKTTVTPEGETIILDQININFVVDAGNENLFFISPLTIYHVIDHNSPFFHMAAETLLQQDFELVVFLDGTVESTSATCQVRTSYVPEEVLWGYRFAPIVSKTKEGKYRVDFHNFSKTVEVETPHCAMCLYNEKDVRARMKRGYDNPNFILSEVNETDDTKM
Description: Solutions and reagents: Thallium flux assay was performed using FluxOR kit (F10017, Life Technologies). Loading buffer, assay buffer and stimulus buffer were prepared using kit components.
To prepare 10 ml of loading buffer: 10 μl of FluxOR dye (reconstituted in DMSO) was first added to 100 μl of powerload concentrate and this mix along with 100 μl of Probenicid (100×) was then added to 9.79 ml of HBSS. […] Stimulus buffer was composed of 15 mM Tl2SO4, 0.75 mM K2SO4 in FluxOR chloride free buffer (diluted to 1× using deionized water). The final concentration of Tl2SO4 and K2SO4 in the assay plate was 3 mM and 0.15 mM, respectively.
Plating and induction of cells: The CHO T-Rex hROMK (human Kir1.1) stable cell line was maintained in Ham's F12 media supplemented with 10% FBS, 1% Penicillin-Streptomycin, 500 μg/ml Zeocin and 10 μg/ml Blasticidin at 37° C. in a 5% CO2 incubator. […] The cell suspension was centrifuged at 1200 rpm for 5 min. After discarding the supernatant, the cells were resuspended in fresh growth media and cell concentration was determined using a hemocytometer. […] The assay plate was kept at 37° C. in a 5% CO2 incubator.
Assay protocol: On the day of experiment, media was removed and loading buffer was added (30 μl/well) to the assay plate. The cells were incubated in the loading buffer for 30 minutes at 37° C. The loading buffer was then replaced by assay buffer (30 μl/well) followed by addition of test compounds or controls. […] Each well was read for 90 sec at 2 sec interval and the stimulus buffer was added after 20 seconds of baseline recording. The final DMSO concentration was either 0.5 or 1% in the assay plate. Positive and negative controls were defined by addition of DMSO or 3 μM of a standard ROMK inhibitor, respectively, to the wells instead of a test compound.
A 10-point concentration response curve was used to estimate the IC50 value of test compounds.

hROMK, sequence (P48048 whole entry): as above

Structure (SMILES): Cc1c(C(O)CNCc2ccc3c(ccn3-c3ccc4c(c3)COC4=O)c2)ccc2c1COC2=O (stereo not drawn) [Example 8-I, 5-(1-hydroxy-2-(((1-(1-oxo-1,3-dihydroisobenzofuran-5-yl)-1H-indol-5-yl)methyl)amino)ethyl)-4-methylisobenzofuran-1(3H)-one]
pIC50 (hROMK): 7.38 | inhibition at 1 µM (hERG channels): 83% | pIC50 (hROMK (human Kir1.1)): 6.54

Structure (SMILES): Cc1cc(-n2cc(CNCC(O)c3ccc4c(c3C3CC3)COC4=O)cn2)ncc1C#N (single isomer, unassigned) [Example 46-I, 6-(4-(((2-(4-cyclopropyl-1-oxo-1,3-dihydroisobenzofuran-5-yl)2-hydroxyethyl)amino)meth-yl)-1H-pyrazol-1-yl)-4-methylnicotinonitrile]
pIC50 (hROMK): 7.77 | pIC50 (hROMK (human Kir1.1)): 7.48

Structure (SMILES): Cc1nn(-c2ncc(CNC[C@H](O)c3ccc4c(c3C)COC4=O)cn2)cc1C#N [Example 105, (R)-1-(5-(((2-hydroxy-2-(4-methyl-1-oxo-1,3-dihydroisobenzofuran-5-yl)ethyl)amino)methyl)pyrimidin-2-yl)-3-methyl-1H-pyrazole-4-carbonitrile]
pIC50 (hROMK): 8.11 | inhibition at 1 µM (hERG channels): 3.4% | pIC50 (hROMK (human Kir1.1)): 7.96

Structure (SMILES): COc1cc(-n2cc(CNC(C)C(O)c3ccc4c(c3C)COC4=O)nn2)ncc1C#N (single isomer, unassigned) [Example 91-I, 6-(4-(((1-hydroxy-1-(4-methyl-1-oxo-1,3-dihydroisobenzofuran-5-yl)propan-2-yl)amino)methyl)-1H-1,2,3-triazol-1-yl)-4-methoxynicotinonitrile]
pIC50 (hROMK): 7.96 | inhibition at 1 µM (hERG channels): 19% | pIC50 (hROMK (human Kir1.1)): 7.68

Structure (SMILES): COc1cc(-c2ccc(CNC[C@H](O)c3ccc4c(c3C)COC4=O)cn2)ncc1C#N [Example 130, (R)-5′-(((2-hydroxy-2-(4-methyl-1-oxo-1,3-dihydroisobenzofuran-5-yl)ethyl)amino)methyl)-4-methoxy-[2,2′-bipyridine]-5-carbonitrile]
pIC50 (hROMK): 8.96 | inhibition at 1 µM (hERG channels): 32% | pIC50 (hROMK (human Kir1.1)): 8.08

Structure (SMILES): Cc1c(C(O)CN(C)Cc2ccc(-c3ccc(C#N)c(F)c3)cc2)ccc2c1COC2=O (single isomer, unassigned) [Example 27-I, 3-fluoro-4′-(((2-hydroxy-2-(4-methyl-1-oxo-1,3-dihydroisobenzofuran-5-yl)ethyl)(methyl)amino)methyl)-[1,1′-biphenyl]-4-carbonitrile]
pIC50 (hROMK): 8.17 | inhibition at 1 µM (hERG channels): 95% | pIC50 (hROMK (human Kir1.1)): 7.40

Structure (SMILES): COc1cc(-c2cc(CNC[C@H](O)c3ccc4c(c3C)COC4=O)on2)ncc1C#N [Example 137, (R)-6-(5-(((2-hydroxy-2-(4-methyl-1-oxo-1,3-dihydroisobenzofuran-5-yl)ethyl)amino)methyl)isoxazol-3-yl)-4-methoxynicotinonitrile]
pIC50 (hROMK): 7.59 | inhibition at 1 µM (hERG channels): 7.6% | pIC50 (hROMK (human Kir1.1)): 7.46

Structure (SMILES): COc1cc(-n2cnc(CNC[C@H](O)c3ccc4c(c3C)COC4=O)c2)ncc1C#N [Example 51, (R)-6-(4-(((2-hydroxy-2-(4-methyl-1-oxo-1,3-dihydroisobenzofuran-5-yl)ethyl)amino)methyl)-1H-imidazol-1-yl)-4-methoxynicotinonitrile]
pIC50 (hROMK): 7.42 | inhibition at 1 µM (hERG channels): 3.4% | pIC50 (hROMK (human Kir1.1)): 7.14

Structure (SMILES): Cc1c(C(O)CN(C)Cc2ccc(-c3ccc4oc(=O)n(C)c4c3)nc2)ccc2c1COC2=O (stereo not drawn) [Example 1-I, 5-(5-(((2-hydroxy-2-(4-methyl-1-oxo-1,3-dihydroisobenzofuran-5-yl)ethyl)(methyl)amino)methyl)pyridin-2-yl)-3-methylbenzo[d]oxazol-2(3H)-one]
pIC50 (hROMK): 7.72 | inhibition at 1 µM (hERG channels): 8.7% | pIC50 (hROMK (human Kir1.1)): 6.77

Structure (SMILES): Cc1nn(-c2ccc(CNC[C@H](O)c3ccc4c(c3C)COC4=O)cn2)cc1C#N [Example 178, (R)-1-(5-(((2-hydroxy-2-(4-methyl-1-oxo-1,3-dihydroisobenzofuran-5-yl)ethyl)amino)methyl)pyridin-2-yl)-3-methyl-1H-pyrazole-4-carbonitrile]
pIC50 (hROMK): 8.68 | inhibition at 1 µM (hERG channels): 36% | pIC50 (hROMK (human Kir1.1)): 8.44

Structure (SMILES): Cc1cn(-c2ccc(CNC[C@H](O)c3ccc4c(c3C)COC4=O)cn2)cn1 [Example 108, (R)-5-(1-hydroxy-2-(((6-(4-methyl-1H-imidazol-1-yl)pyridin-3-yl)methyl)amino)ethyl)-4-methylisobenzofuran-1(3H)-one]
pIC50 (hROMK): 7.72 | inhibition at 1 µM (hERG channels): 7.3% | pIC50 (hROMK (human Kir1.1)): 7.46

Structure (SMILES): Cc1nc(-n2cc(CNC[C@H](O)c3ccc4c(c3C)COC4=O)cn2)nc(C)c1C#N [Example 87, (R)-2-(4-(((2-hydroxy-2-(4-methyl-1-oxo-1,3-dihydroisobenzofuran-5-yl)ethyl)amino)methyl)-1H-pyrazol-1-yl)-4,6-dimethylpyrimidine-5-carbonitrile]
pIC50 (hROMK): 7.15 | inhibition at 1 µM (hERG channels): 7.5% | pIC50 (hROMK (human Kir1.1)): 7.40

Structure (SMILES): COc1cc(-n2cc(CNC[C@H](O)c3ccc4c(c3C)COC4=O)nn2)ncc1C#N [Example 138, (R)-6-(4-(((2-hydroxy-2-(4-methyl-1-oxo-1,3-dihydroisobenzofuran-5-yl)ethyl)amino)methyl)-1H-1,2,3-triazol-1-yl)-4-methoxynicotinonitrile]
pIC50 (hROMK): 7.74 | inhibition at 1 µM (hERG channels): 10% | pIC50 (hROMK (human Kir1.1)): 7.37

Structure (SMILES): Cc1cc(-c2cc(CNC[C@H](O)c3ccc4c(c3C)COC4=O)on2)ncc1C#N [Example 140, (R)-6-(5-(((2-hydroxy-2-(4-methyl-1-oxo-1,3-dihydroisobenzofuran-5-yl)ethyl)amino)methyl)isoxazol-3-yl)-4-methylnicotinonitrile]
pIC50 (hROMK): 7.80 | inhibition at 1 µM (hERG channels): 8.6% | pIC50 (hROMK (human Kir1.1)): 7.25

pIC50 (hROMK): 7.96
Structure (SMILES): CN(Cc1ccc(-c2ccc3oc(=O)n(C)c3c2)nc1)C[C@H](O)c1ccc2oc(=O)n(C)c2c1 [Example 6-I]
hERG EP IC50 (% Inh @1 uM) (hERG channels; % inhibition of hERG current at 1 uM, manual patch clamp, HEK 293 cells): 26%

Structure (SMILES): Cc1cn(-c2ncc(CNC[C@H](O)c3ccc4c(c3C)COC4=O)cn2)cn1 [Example 106, (R)-5-(1-hydroxy-2-(((2-(4-methyl-1H-imidazol-1-yl)pyrimidin-5-yl)methyl)amino)ethyl)-4-methylisobenzofuran-1(3H)one]
pIC50 (hROMK): 8.04 | inhibition at 1 µM (hERG channels): 2.4% | pIC50 (hROMK (human Kir1.1)): 7.59

Structure (SMILES): Cc1c(C(O)CNCc2ccc(-c3ccc4oc(=O)n(C)c4c3)nc2)ccc2c1COC2=O (single isomer, unassigned) [Example 23-I, 5-(5-(((2-hydroxy-2-(4-methyl-1-oxo-1,3-dihydroisobenzofuran-5-yl)ethyl)amino)methyl)pyridin-2-yl)-3-methylbenzo[d]oxazol-2(3H)-one]
pIC50 (hROMK): 7.82 | inhibition at 1 µM (hERG channels): 13% | pIC50 (hROMK (human Kir1.1)): 6.80

Structure (SMILES): Cc1c([C@@H](O)CNCc2cnc(-n3c(C)nnc3C)nc2)ccc2c1COC2=O [Example 47, (R)-5-(2-(((2-(3,5-dimethyl-4H-1,2,4-triazol-4-yl)pyrimidin-5-yl)methyl)amino)-1-hydroxyethyl)-4-methylisobenzofuran-1(3H)-one]
pIC50 (hROMK): 6.38 | inhibition at 1 µM (hERG channels): 9.7% | pIC50 (hROMK (human Kir1.1)): 7.00

Structure (SMILES): Cc1c([C@@H](O)CNCc2cn(-c3ccc4oc(=O)n(C)c4c3)nn2)ccc2c1COC2=O [Example 139, (R)-5-(4-(((2-hydroxy-2-(4-methyl-1-oxo-1,3-dihydroisobenzofuran-5-yl)ethyl)amino)methyl)-1H-1,2,3-triazol-1-yl)-3-methylbenzo[d]oxazol-2(3H)-one]
pIC50 (hROMK): 7.62 | inhibition at 1 µM (hERG channels): 5.9% | pIC50 (hROMK (human Kir1.1)): 7.26

Structure (SMILES): Cc1c([C@@H](O)CNC(=O)c2cnc(-c3ccc4oc(=O)n(C)c4c3)s2)ccc2c1COC2=O [Example 136, (R)-N-(2-hydroxy-2-(4-methyl-1-oxo-1,3-dihydroisobenzofuran-5-yl)ethyl)-2-(3-methyl-oxo-2,3-dihydrobenzo[d]oxazol-5-yl)thiazole-5-carboxamide]
pIC50 (hROMK): 7.07 | inhibition at 1 µM (hERG channels): 15% | pIC50 (hROMK (human Kir1.1)): 7.15

Structure (SMILES): Cc1nc(-n2cc(CNC[C@H](O)c3ccc4c(c3C)COC4=O)cn2)ncc1C#N (single isomer, unassigned) [Example 50]
pIC50 (hROMK): 7.31 | inhibition at 1 µM (hERG channels): 8.5% | pIC50 (hROMK (human Kir1.1)): 7.35

Structure (SMILES): Cc1cc(-n2cc(CNC[C@H](O)c3ccc4c(c3C)COC4=O)nn2)nc(C)c1C#N [Example 69, (R)-6-(4-(((2-hydroxy-2-(4-methyl-1-oxo-1,3-dihydroisobenzofuran-5-yl)ethyl)amino)methyl)-1H-1,2,3-triazol-1-yl)-2,4-dimethylnicotinonitrile]
pIC50 (hROMK): 8.21 | inhibition at 1 µM (hERG channels): 15% | pIC50 (hROMK (human Kir1.1)): 7.85

Structure (SMILES): Cc1cc(-n2cc(CNC[C@H](NS(C)(=O)=O)c3ccc4c(c3C)COC4=O)cn2)ncc1C#N [Example 61, (R)-N-(2-(((1-(5-cyano-4-methylpyridin-2-yl)-1H-pyrazol-4-yl)methyl)amino)-1-(4-methyl-1-oxo-1,3-dihydroisobenzofuran-5-yl)ethyl)methanesulfonamide]
pIC50 (hROMK): 7.57 | inhibition at 1 µM (hERG channels): 8.4% | pIC50 (hROMK (human Kir1.1)): 7.57

Structure (SMILES): Cc1c([C@@H](O)CNCc2ccc(-n3cc(C#N)cn3)nc2)ccc2c1COC2=O [Example 177]
pIC50 (hROMK): 9.82 | inhibition at 1 µM (hERG channels): 98% | pIC50 (hROMK (human Kir1.1)): 9.24

Structure (SMILES): COc1nc(-n2cc(CNC[C@H](O)c3ccc4c(c3C)COC4=O)nn2)cc(C)c1C#N [Example 67, (R)-6-(4-(((2-hydroxy-2-(4-methyl-1-oxo-1,3-dihydroisobenzofuran-5-yl)ethyl)amino)methyl)-1H-1,2,3-triazol-1-yl)-2-methoxy-4-methylnicotinonitrile]
pIC50 (hROMK): 8.03 | inhibition at 1 µM (hERG channels): 11% | pIC50 (hROMK (human Kir1.1)): 7.70

Structure (SMILES): COc1cc(-n2cc(CNC[C@H](O)c3ccc4c(c3C)COC4=O)nc2C)ncc1C#N [Example 52, (R)-6-(4-(((2-hydroxy-2-(4-methyl-1-oxo-1,3-dihydroisobenzofuran-5-yl)ethyl)amino)methyl)-2-methyl-1H-imidazol-1-yl)-4-methoxynicotinonitrile]
inhibition at 1 µM (hERG channels): 13% | pIC50 (hROMK (human Kir1.1)): 6.74
